One series concerns Met. To be noted: N and E of the pentapeptide changed to A, Matzke et al., Cancer Res. (2005), cited from earlier work.
In the next series the test system is CD44v6. Kind of series: HGF-induced activation of Met and ERK in L3.6pl cells (Western blot). Conditions: peptide before induction with 10 ng/ml HGF. Type of series: cell-based, human. As for the experimental part:
Serum-starved cells (24 hours) were induced with the growth factor HGF (10 ng/mL) at 37° C. for 5 minutes. Where indicated, the cells were treated with peptides (100 ng/ml) prior to induction at 37° C. for 10 minutes (100 ng/mL CD44v6 peptide or control peptide). Following the induction with HGF, cells were washed with ice-cold phosphate-buffered saline (PBS). To detect activated Met and ERK, cells were lysed in sodium dodecyl sulfate (SDS)—sample buffer containing 100 mM dithiothreitol (DTT), boiled and subjected to western blot analysis using antibodies against phospho-Met and ERK. The loading controls were performed on the same blot after stripping (62.5 mM Tris, pH 6.8, 2% SDS, 0.8% DTT) by probing with the Met respectively Erk antibody. Blots were stained using the enhanced chemiluminescence system (Thermo Fisher Scientific, Schwerte, Germany). Bands in western blot analysis were quantified with the program Image J (National Institutes of Health).
To expand the studies to human pancreatic tumors, the highly metastatic human pancreatic carcinoma cells L3.6pl (Bruns, et al. Neoplasia (1999), 1(1):50-62) were investigated. These cells originate from the […] cells that have been passaged several times in the liver and the pancreas, a step that rendered them more and more metastatic. It was confirmed that Met is dependent on CD44v6 for its activation and signaling in these cells (FIG. 19A). The L3.6pl cells were treated with HGF in the presence or absence of a human v6 peptide of SEQ ID NO: 2 or SEQ ID NO:6 and Met activation and downstream signaling to ERK was measured. Phosphorylation of both Met and ERK was inhibited by the human v6 peptide. Treatment with a corresponding rat v6 peptide (ctrl peptide, SEQ ID NO: 10 or 11) had no influence on receptor activation and signal transduction (FIG. 19A).
The contribution of CD44v6 to Met signaling in the human epithelial pancreatic cancer cells L3.6pl (derived from Colo 357), the cervix carcinoma cells HeLa and the colon cancer cells HT29 were analysed using the CD44v6 peptide (v6 14mer; v6 5mer tested as well, data not shown).
Background: A western blot detects proteins with antibodies after separation by electrophoresis.

The subject of the next series is BSp73ASs6 cells. The series is described as follows: Rat syngeneic model, subcutaneous BSp73ASs6 tumors, treatment from one week (metastasis formation). Type of series: in vivo. Conditions: rats, s.c. BSp73ASs6. As for the experimental part: In the case of the rat syngeneic model, 1×10^6 pancreatic cells (BSp73AS and its transfectants) were subcutaneously injected into the right posterior flank of the animals. Tumors developed for four weeks. During this time period animals injected with BSp73ASs6 cells expressing Met-shRNA or control-shRNA received doxycycline in the drinking water. At the end of the experiment, primary tumors were isolated. Lungs and axillary lymph nodes were analyzed. The tissues were incubated for 24 h in a zinc-fixative (0.5 g calcium acetate, 5.0 g zinc acetate, 5.0 g zinc chloride, in 1 L 0.1 M Tris pH 7.4) and embedded in paraffin for further analysis. In case of peptide or antibody treatment tumors developed for one week before the first treatment. Where indicated, animals received 200 μg of peptide or antibody per injection three times per week for four weeks. Tumor growth was monitored weekly using a caliper Animals were killed at day 28 or 30 after start of the treatment.
For histomorphological analysis paraffin-embedded sections of lungs were stained with hematoxylin and eosin and periodic acid-Schiff (H&E or PAS). Serial sections of the whole tissue blocks were examined by analyzing slices every 20 μm; in each slice, the presence and the extension of the metastatic deposit was assessed, according to the procedure routinely used by pathologists to evaluate the presence of micrometastases.
Rat peptides had the sequences KEKWFENEWQGKNP (SEQ ID NO: 10) and NEWQG (SEQ ID NO: 11). BSp73ASs6 cells were subcutaneously injected into syngeneic rats and rat CD44v6 peptides of SEQ ID NO: 10 or SEQ ID NO: 11 (or mouse control peptides) or the CD44v6 antibody (or IgGs as a control) were injected intra-tumoral or intravenously three times a week. […] This is compatible with the fact that also BSp73AS cells or BSp73ASv1-10Δv6 cells can induce the formation of primary tumors similarly to the v6 transfectants.

The test system of a further series is L3.6pl cells. The series is described as follows: Human orthotopic pancreatic cancer model, L3.6pl cells in nude mice, treatment from day 7. It is filed as in vivo, mouse. To be noted: nude mice, orthotopic L3.6pl; 20 μg i.p. three times per week; listed as rat-specific peptide. As for the experimental part:
In the case of the human orthotopic model, L3.6pl pancreatic carcinoma cells (passage 24-26) were suspended in Hank's balanced salt solution (Invitrogen, Karlsruhe, Germany) after trypsinization. The cells were injected orthotopically in the pancreas of male nude mice as described (Bruns C J et al. (1999) Neoplasia 1(1):50-62). Two groups of 15 mice each were injected i.p. 7 days later with either the human v6 peptide respectively rat control peptide (20 μg). For all experiments described and depicted herein either the rat 14mer control peptide or the human 14mer peptide were used. All experiments were then repeated with the rat 5mer control peptide or the human 5mer peptide (N-R-W-H-E, SEQ ID NO: 2). […] The injection was repeated three times per week for 21 days. Two days after the last treatment the animals were killed.
7 μm thick paraffin sections were deparaffinized and rehydrated. For P-Met staining antigen unmasking was achieved by boiling the slides in 1 mM EDTA pH 8.0 followed by incubation for 15 minutes at a sub-boiling temperature, for CD31 staining the sections were treated with Proteinase K (8 μg/ml) for […] at 37° C. For immunofluorescence staining of P-Met, unspecific binding was blocked with 5% goat serum (DAKO, Glostrup, Denmark) (diluted in 1×PBS/0.3% Triton X-100) for 60 minutes. In the case of immunohistochemistry, endogenous peroxidases were at first blocked with 3% H2O2 in PBS followed by incubation with biotin blocking system (Dako, Glostrup, Denmark) and then unspecific binding was inhibited by incubation with 5% FCS in PBS was used for blocking. The sections were incubated with the P-Met antibody (D26, dilution 1:50 in 1×PBS/1% BSA/0.3% Triton X-100), Met antibody (C-28, dilution 1:50), GFP antibody (sc-101525, dilution 1:50) or CD31 antibody (5 μg/ml) over night or VFF18 (5 μg/ml) o/n at 4° C. After washing in PBS the sections were incubated with Alexa Fluor R 546 goat anti-rabbit (in case of immunofluorescence P-Met and Met staining, dilution 1:500) or a biotinylated secondary antibody (for immunohistochemical stainings rabbit anti-rat antibody for VFF18 and CD31, goat anti-rabbit for P-Met, cleaved Caspase-3 and cleaved Caspase-8 and rabbit anti-mouse for GFP, dilution 1:500) for 45 minutes. For DAB staining the sections were treated with a streptavidin-peroxidase conjugate (Dako, Glostrup, Denmark) and developed with DAB (3,3′-diaminobenzidine) substrate system (3,3′-diaminobenzidine; Biozol, Eching, Germany) For immunofluorescence DAPI was used for nuclear staining.
To test the effect of the peptide on tumor growth and metastasis formation the L3.6pl cells were orthotopically injected into the pancreas of immunosuppressed mice (NCI-nu). […] The primary tumor expresses a high amount of CD44v6 (FIG. 19B). […] Indeed, human HGF in a concentration of 3375 pg/ml was detected in the supernatant (see Material and Methods) after 5 days of culture (data not shown).

Another series deals with BSp73ASs6 tumors. To be noted: rat.
The next series relates to murine 4T1 cells. The series is described as follows: Syngeneic orthotopic 4T1 mammary carcinoma model in BALB/c mice. Type of series: in vivo, mouse. As for the experimental part:
FIG. 27: Treatment with the v6 14mer reduces growth of the primary tumor and macroscopic metastases formation in the lung. 1×10^6 murine 4T1 cells per mouse were diluted in 50 μl RPMI plus 50 μl Matrigel and injected into the […] mammary fat pad of 10 female BALB/c mice. One week after the injection, the mice were either injected intraperitoneally with 20 μg of the murine v6 14mer dissolved in 100 μl PBS or with 20 μg of control peptide (rat v6 14mer) dissolved in 100 μl PBS. The injection was performed 3 times per week for two weeks. After 2 weeks the mice were sacrificed and the primary tumors and the lungs were extracted. A: Overall reduction of the tumor volume in the v6 peptide treated group B: Immunofluorescent staining for the endothelial marker CD34 to monitor vascularization of the primary tumor. Graphic representation of the reduction of the total vessel area. C: The v6 peptides led to a reduction in macroscopic lung metastasis. The black arrows mark examples for metastases. The scale bar corresponds to a size of 1 cm. Statistical evaluation of the average number of lung metastases. Significance was calculated using Student's t test: p*<0.01; **p<0.005. Each group consisted of 5 animals.
All animals were handled according to German regulations for animal experimentation. The animal experiments were approved by the Regierungspräsidium Karlsruhe (35-9185.81/G-83/04). All mice were obtained from Harlan. 1×10^6 murine 4T1 cells (diluted in either […] of control peptide or […] of CD44v6 peptide (peptides of SEQ ID No.: 6 were tested) in PBS) were orthotopically injected into the mammary fat pad of female BALB/c mice. In succession, 5 of the mice were injected intraperitoneally with a CD44v6-peptide (20 μg per mouse) (peptides of SEQ ID No.: 6 were tested) and 5 of the mice were injected with an unspecific control peptide (20 μg per mouse) three times a week. After four weeks, the mice were sacrificed and the tumors as well as the lung and lymph nodes of the animals were extracted. These organs were then fixed in 4% Formalin, processed and embedded in paraffin. […]

“Also recorded” adds a separate entry of the source. Where two headings read alike, the source gives them in different places. No end group written: not given here.

As for A-R-W-H-A (ARWHA) [SEQ ID NO: 3], the “CD44v6 mediated activation of Met” value is reported as “still active in inhibiting CD44v6 mediated activation of Met” in the series with Met and “capable of abrogating Met activation” with Met (listed as SEQ ID NO:3).
With “KEKWFENEWQGKNP [SEQ ID NO: 10, rat CD44v6 14mer; control peptide in human models]”, in the series with CD44v6, the “HGF-induced phosphorylation/activation of ERK” value is on record as “no influence” and the “HGF-induced phosphorylation/activation of Met” value is on record as “no influence”. Also, the “Metastasis (axillary lymph nodes and lungs)” value in the series on BSp73ASs6 cells (200 μg per injection i.t. or i.v., three times a week, four weeks, start after one week) is given as “completely inhibited metastasis”. The “Metastasis and micro-metastasis in lung sections (PAS and H&E histology)” value in the series with BSp73ASs6 cells (200 μg three times a week) was “no metastasis nor micro-metastasis could be detected”. Further, in the series with BSp73ASs6 cells (treatment for 28 days), the “Outgrowth of primary tumors” value is “not influenced”. For the same substance, in the series on L3.6pl cells, the “Metastasis formation (liver)” value is given as “neither influence on metastasis formation; also recorded: no influence on metastasis formation” and the “Outgrowth of the primary tumor in the pancreas” value is given as “no influence on metastasis formation or on growth of the primary tumor”.
As for “WFQNGWQGKNP (also: DY681 fluorescent dye label) [mv6 pep Dy681, reference compound]”, the “Ex vivo fluorescence in excised tumors and lungs” value in the series with BSp73ASs6 tumors was “not in tumors and lungs”.
Consider “v6 14mer: murine v6 14mer per FIG. 27 legend; no sequence printed; b173 and b212 say SEQ ID NO: 6 (KEQWFGNRWHEGYR)”, for which, in the series on murine 4T1 cells (BALB/c mice, 4T1, 20 μg i.p. 3 times per week for two weeks), the “Total number of blood vessels in the primary tumor (anti-CD34 staining)” value is “significantly reduced”. Also, in the series on murine 4T1 cells (BALB/c mice, 4T1 in mammary fat pad, 20 μg i.p. 3 times per week for two weeks, 5 animals per group), the “Size of the primary tumor” value is reported as “significant decrease of tumor size”. Also, in the series on murine 4T1 cells (macroscopic analysis of the lungs, 5 animals per group), the “Macroscopic lung metastases per animal” value is on record as “three animals showed no macroscopic metastases at all, whereas two animals had only one metastase”.

Source of the values: US9586994B2, “CD44V6-derived peptides for treating breast cancer” (KARLSRUHER INSTITUT FÜR TECHNOLOGIE, priority 2012, dated 2017).
